The assay has as its system mix-culture of E. coli strains (E20, 41, 55, and 59). The assay is described as follows: Checkerboard titration assay, phage cocktail with antibiotics. It is filed as cell-based. As to the method: A checkerboard titration assay was performed as described previously (Hsieh et al. Diagn Microbiol Infect Dis 16, 343-349 (1993)). Briefly, antibiotics (cefoperazone, vancomycin, polymyxin B, and rifampicin) were two-fold serially diluted on each column, and phage cocktail was 10-fold diluted on each row. The mix-culture of E. coli strains (E20, 41, 55, and 59) was added to 10^5 CFU/well, and the plate was incubated at 42° C. for 24 hours. The OD600 was measured with SpectaMax i3 Platfrom (Molecular Devices, San Jose, Calif.), and shown as a heat plot.
Because the selective pressure of the enrichment media is determined by antibiotic supplements in the media, the inhibition efficacy of the phage cocktail was measured in the presence of four antibiotics (cefoperazone, vancomycin, polymyxin B, and rifampicin) used in BB and PB. […] A checkerboard assay was performed to examine the antimicrobial activity of the phage cocktail in combination with antibiotics.

[1] abbreviates: Escherichia coli, antibiotic without the phage cocktail, 42° C., 24 hours, read-out: MIC.
Where [2] appears, read: antibiotic without the phage cocktail, 42° C., 24 hours.

Read-outs that look alike come from different tables or passages of the source.

Take `CO[C@H]1/C=C/O[C@@]2(C)Oc3c(C)c(O)c4c(O)c(c(/C=N/N5CCN(C)CC5)c(O)c4c3C2=O)NC(=O)/C(C)=C\C=C\[C@H](C)[C@H](O)[C@@H](C)[C@@H](O)[C@@H](C)[C@H](OC(C)=O)[C@@H]1C` [rifampicin]: under setting [1], the MIC turned out to be 32 µg/mL.

`CN[C@H](CC(C)C)C(=O)N[C@H]1C(=O)N[C@@H](CC(N)=O)C(=O)N[C@H]2C(=O)N[C@H]3C(=O)N[C@H](C(=O)N[C@H](C(=O)O)c4cc(O)cc(O)c4-c4cc3ccc4O)[C@H](O)c3ccc(c(Cl)c3)Oc3cc2cc(c3O[C@@H]2O[C@H](CO)[C@@H](O)[C@H](O)[C@H]2O[C@H]2C[C@](C)(N)[C@H](O)[C@H](C)O2)Oc2ccc(cc2Cl)[C@H]1O` [vancomycin]: under “Escherichia coli, 24 h”, the MIC amounted to 64 µg/mL.

For the compound `CCN1CCN(C(=O)N[C@@H](C(=O)N[C@@H]2C(=O)N3C(C(=O)O)=C(CSc4nnnn4C)CS[C@H]23)c2ccc(O)cc2)C(=O)C1=O` [cefoperazone], the MIC reads like this: under setting [1], above 512 µg/mL; under setting [2], above 512 µg/mL.

Consider polymyxin B, for which the MIC under setting [2] came out at 4 µg/mL.

(Values after US20220184155A1, “BACTERIOPHAGES FOR INHIBITING BACTERIA” (REGENTS OF THE UNIVERSITY OF MINNESOTA, priority 2020, published 2022).)
